Test results as given in patent US8835476B2, “Synthesis of novel antimicrobials” (priority 2005, dated 2014).
≈ marks a conversion by molar mass, not a printed value. Like-named read-outs stand apart in the source and are kept apart here.

Assays:
Format in all cases: cell-based
E. coli ATCC 25922 = assay: Broth microdilution MIC, ATCC strains; conditions: Escherichia coli, ATCC25922, E. coli ATCC 25922; read-out: MIC (growth inhibition, microdilution method)
In short: (§1)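 Clinical organisms, randomly drawn NAUTICA urinary isolates, and ATCC reference strains tested by NCCLS M7-A6 broth microdilution at 5×10^5 CFU/ml. Incubation 16 to 20 hours, 35° C, ambient air; MIC defined as lowest concentration without visible growth.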

S. aureus ATCC 29213 = assay: Broth microdilution MIC, ATCC strains; conditions: for MIC: Staphylococcus aureus, ATCC29213, S. aureus ATCC 29213, read-out: MIC (growth inhibition, microdilution method)
In short: as §1

K. pneumoniae ATCC 13883 = assay: Broth microdilution MIC, ATCC strains; conditions: Klebsiella pneumoniae, ATCC13883; K. pneumoniae ATCC 13883; read-out: MIC (growth inhibition, microdilution method)
In short: as §1

E. faecalis ATCC 29212 = assay: Broth microdilution MIC, ATCC strains; conditions: Enterococcus faecalis, read-out: MIC (growth inhibition, microdilution method)
In short: as §1

[1] = system: S. maltophilia ATCC 13637; assay: Broth microdilution MIC, ATCC strains; conditions: Stenotrophomonas maltophilia, ATCC13637; S. maltophilia ATCC 13637; read-out: MIC (growth inhibition, microdilution method)
In short: as §1

MRSA ATCC 33591 = assay: Broth microdilution MIC, ATCC strains; conditions: Staphylococcus aureus; MRSA ATCC 33591; read-out: MIC (growth inhibition, microdilution method)
In short: as §1

S. warneri ATCC 27836 = assay: Broth microdilution MIC, ATCC strains; conditions: Staphylococcus warneri, ATCC27836; S. warneri ATCC 27836; read-out: MIC (growth inhibition, microdilution method)
In short: as §1

E. aerogenes ATCC 13048 = assay: Broth microdilution MIC, ATCC strains; conditions: Klebsiella aerogenes, ATCC13048; E. aerogenes ATCC 13048; read-out: MIC (growth inhibition, microdilution method)
In short: as §1

P. vulgaris ATCC 49132 = assay: Broth microdilution MIC, ATCC strains; conditions: Proteus vulgaris, ATCC49132; P. vulgaris ATCC 49132; read-out: MIC (growth inhibition, microdilution method)
In short: as §1

[2] = system: S. epidermidis ATCC 14990; assay: Broth microdilution MIC, ATCC strains; conditions: Staphylococcus epidermidis, ATCC14990; S. epidermidis ATCC 14990; read-out: MIC (growth inhibition, microdilution method)
In short: as §1

[3] = system: Ps. aeruginosa ATCC 27853; assay: Broth microdilution MIC, ATCC strains; conditions: Pseudomonas aeruginosa, ATCC27853; Ps. aeruginosa ATCC 27853; read-out: MIC (growth inhibition, microdilution method)
In short: as §1

K. oxytoca ATCC 49131 = assay: Broth microdilution MIC, ATCC strains; conditions: Klebsiella oxytoca, ATCC49131; K. oxytoca ATCC 49131; read-out: MIC (growth inhibition, microdilution method)
In short: as §1

Pr. stuartii ATCC 33672 = assay: Broth microdilution MIC, ATCC strains; conditions: Providencia stuartii, ATCC33672; Pr. stuartii ATCC 33672; read-out: MIC (growth inhibition, microdilution method)
In short: as §1

E. faecium ATCC 35667 = assay: Broth microdilution MIC, ATCC strains; conditions: Enterococcus faecium, ATCC35667, read-out: MIC (growth inhibition, microdilution method)
In short: as §1

S. simulans ATCC 27848 = assay: Broth microdilution MIC, ATCC strains; conditions: Staphylococcus simulans, ATCC27848, read-out: MIC (growth inhibition, microdilution method)
In short: as §1

A. anitratus ATCC 19606 = assay: Broth microdilution MIC, ATCC strains; conditions: Acinetobacter calcoaceticus, ATCC19606; A. anitratus ATCC 19606; read-out: MIC (growth inhibition, microdilution method)
In short: as §1

E. cloacae ATCC 23355 = assay: Broth microdilution MIC, ATCC strains; conditions: Enterobacter cloacae, ATCC23355; E. cloacae ATCC 23355; read-out: MIC (growth inhibition, microdilution method)
In short: as §1

S. marcescens ATCC 8100 = assay: Broth microdilution MIC, ATCC strains; conditions: Serratia marcescens, ATCC8100; S. marcescens ATCC 8100; read-out: MIC (growth inhibition, microdilution method)
In short: as §1

P. mirabilis ATCC 29245 = assay: Broth microdilution MIC, ATCC strains; conditions: Proteus mirabilis, ATCC29245; P. mirabilis ATCC 29245; read-out: MIC (growth inhibition, microdilution method)
In short: as §1

B. cepacia ATCC 25416 = assay: Broth microdilution MIC, ATCC strains; conditions: Burkholderia cepacia, ATCC25416; B. cepacia ATCC 25416; read-out: MIC (growth inhibition, microdilution method)
In short: as §1

[4] = system: S. saprophyticus ATCC 15305; assay: Broth microdilution MIC, ATCC strains; conditions: Staphylococcus saprophyticus, ATCC15305; S. saprophyticus ATCC 15305; read-out: MIC (growth inhibition, microdilution method)
In short: as §1

P. rettgeri CAP = assay: Broth microdilution MIC, reference strains; conditions: Providencia rettgeri; P. rettgeri (CAP in Table 1); read-out: MIC (growth inhibition, microdilution method)
In short: as §1

[5] = ATCC29212, E. faecalis ATCC 29212
[6] = ATCC29212, E. faecalis, ATCC number not given

SMILES | MIC (E. coli ATCC 25922) [µg/mL] | MIC (S. aureus ATCC 29213) [µg/mL] | MIC (K. pneumoniae ATCC 13883) [µg/mL] | MIC (E. faecalis ATCC 29212; [5]) [µg/mL] | MIC (E. faecalis ATCC 29212; [6]) [µg/mL] | MIC [1] [µg/mL] | MIC (MRSA ATCC 33591) [µg/mL] | MIC (S. warneri ATCC 27836) [µg/mL] | MIC (E. aerogenes ATCC 13048) [µg/mL] | MIC (P. vulgaris ATCC 49132) [µg/mL] | MIC [2] [µg/mL] | MIC [3] [µg/mL] | MIC (K. oxytoca ATCC 49131) [µg/mL] | MIC (Pr. stuartii ATCC 33672) [µg/mL] | MIC (E. faecium ATCC 35667) [µg/mL] | MIC (S. simulans ATCC 27848) [µg/mL] | MIC (A. anitratus ATCC 19606) [µg/mL] | MIC (E. cloacae ATCC 23355) [µg/mL] | MIC (S. marcescens ATCC 8100) [µg/mL] | MIC (P. mirabilis ATCC 29245) [µg/mL] | also measured
COC(=O)c1sc(-c2ccc(F)cc2)cc1-c1nnn(C)n1 [DNM-144, 5-(4-fluoro-phenyl)-3-(2-methyl-2H-tetrazol-5-yl)-thiophene-2-carboxylic acid methyl ester] | > 8 | > 8 | > 8 | > 8 | > 8 | > 8 | > 8 | > 8 | > 8 | > 8 | > 8 | > 8 | > 8 | > 8 | > 8 | > 8 | > 8 | > 8 | > 8 | > 8 | MIC (B. cepacia ATCC 25416): > 8 µg/mL; MIC [4]: > 8 µg/mL; MIC (P. rettgeri CAP): > 8 µg/mL
CCOC(=O)c1cc(-c2nnn[nH]2)c(-c2ccc(F)cc2)s1 [DNM-124, 5-(4-Fluoro-phenyl)-4-(1H-tetrazol-5-yl)-thiophene-2-carboxylic acid ethyl ester] | > 64 | > 64 | > 64 | > 64 | > 64 | 64 (≈ 201 µM) | > 64 | > 64 | > 64 | > 64 | 64 (≈ 201 µM) | > 64 | > 64 | > 64 | > 64 | > 64 | 64 (≈ 201 µM) | > 64 | > 64 | > 64 | MIC (B. cepacia ATCC 25416): 64 µg/mL (≈ 201 µM); MIC [4]: > 64 µg/mL; MIC (P. rettgeri CAP): > 64 µg/mL
O=C(O)c1cc(-c2nnn[nH]2)c(-c2ccc(F)cc2)s1 [DNM-121, 5-(4-Fluoro-phenyl)-4-(1H-tetrazol-5-yl)-thiophene-2-carboxylic acid] | 64 (≈ 220 µM) | 64 (≈ 220 µM) | 64 (≈ 220 µM) | 8 (≈ 27.6 µM) | 8 (≈ 27.6 µM) | 64 (≈ 220 µM) | 64 (≈ 220 µM) | 64 (≈ 220 µM) | 64 (≈ 220 µM) | 64 (≈ 220 µM) | 64 (≈ 220 µM) | 64 (≈ 220 µM) | 64 (≈ 220 µM) | 64 (≈ 220 µM) | 8 (≈ 27.6 µM) | 64 (≈ 220 µM) | 64 (≈ 220 µM) | 64 (≈ 220 µM) | 64 (≈ 220 µM) | 64 (≈ 220 µM) | MIC (growth inhibition, microdilution method) (S. aureus ATCC 29213; S. aureus ATCC 29213): 32 µg/mL (≈ 110 µM); MIC (B. cepacia ATCC 25416): 64 µg/mL (≈ 220 µM); MIC [4]: 64 µg/mL (≈ 220 µM); MIC (P. rettgeri CAP): 64 µg/mL (≈ 220 µM)
O=C(O)c1sc(-c2ccc(F)cc2)cc1-c1nnn[nH]1 [DNM-141, 5-(4-Fluoro-phenyl)-3-(1H-tetrazol-5-yl)-thiophene-2-carboxylic acid] | > 16 | > 16 | > 16 | > 16 | > 16 | > 16 | > 16 | > 16 | > 16 | > 16 | > 16 | > 16 | > 16 | > 16 | > 16 | > 16 | > 16 | > 16 | > 16 | > 16 | MIC (B. cepacia ATCC 25416): > 16 µg/mL; MIC [4]: > 16 µg/mL; MIC (P. rettgeri CAP): > 16 µg/mL
